{"source": "ChEMBL document CHEMBL4330134", "about": "“Design, synthesis, and bioevaluation of a novel class of (E)-4-oxo-crotonamide derivatives as potent antituberculosis agents” (Bioorg Med Chem Lett, 2019)", "tested_on": "Mycobacterium tuberculosis", "assay": "Antimycobacterial activity against miltidrug-resistant Mycobacterium tuberculosis", "format": "functional", "data": [{"smiles": "COC(=O)/C=C/C(=O)c1ccc(OC)cc1", "values": [{"measurement": "MIC", "value": "0.25 to 1", "unit": "µg/mL"}]}]}
